These results are taken from article PMC13192270, “RhlR quorum-sensing receptor ligand sensitivity regulates the differential expression of phenazine genes in Pseudomonas aeruginosa” (Journal of Bacteriology, 2026).

One assay deals with LasR. Set-up: method as in PMID 28119451. The settings on record: cited from earlier work.
The next assay deals with T1, RhlR (T58V) (Pseudomonas aeruginosa, UniProt P54292, T58V).
T1 construct: expressed in transfected cells; host or cells: E. coli carrying pBAD-A-rhlR mutant, pCS26-prhlA-luxCDABE and pACYC-pqsE or empty pACYC
T1 sequence (P54292 1-241 T58V): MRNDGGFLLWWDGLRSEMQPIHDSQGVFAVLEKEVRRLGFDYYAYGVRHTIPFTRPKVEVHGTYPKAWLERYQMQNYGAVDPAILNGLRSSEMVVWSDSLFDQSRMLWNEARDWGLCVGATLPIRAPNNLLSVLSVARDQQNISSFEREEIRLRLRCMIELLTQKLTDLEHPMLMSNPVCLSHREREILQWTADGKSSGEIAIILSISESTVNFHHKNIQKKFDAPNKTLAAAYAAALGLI
The assay is described as follows: E. coli prhlA-luxCDABE luciferase reporter assay. The assay is classed as cell-based. An excerpt:
(§1) Previous analysis of the RhlR LBP focused on highly conserved residues that were known from other AHL-binding proteins to be important contacts for AHL molecules, particularly the lactone head group. We performed conservation analyses on 300 LuxR-type receptors to determine variable and moderately conserved residues in the LBP (Fig. 1B) and, in conjunction with our previously determined experimental structure of WT RhlR bound to the synthetic agonist mBTL, used for docking C4- and C6HSL. Based on our docking simulations, C4- and C6HSL occupy a similar position in the LBP as mBTL, a highly efficacious activator of RhlR (Fig. 1C; Fig. S1). We targeted residues A44, G46, T58, L69, Y72, D81, I84, W96, and W108 (Fig. 1B and C). These residues were selected because of their proximity to the acyl tail of C4HSL, as well as the differences in conservation that are observed at these sites. We used an E. coli luciferase reporter assay to monitor ligand-dependent activation of WT RhlR and RhlR variants. WT RhlR and RhlR variants were expressed under the control of an arabinose-inducible promoter (Fig. S2). Transcription was monitored by light production via the expression of the luxCDABE operon controlled by the RhlR-dependent promoter of rhlA. Binding of RhlR to the rhlA promoter is highly dependent on the C4HSL-RhlR interaction, based on ChIP-seq analyses performed in P. aeruginosa as well as previously published E. coli reporter systems ([34], [39]). After expressing WT RhlR and RhlR variants in the E. coli reporter system, we performed dose response assays using C4HSL to calculate the concentration of C4HSL required to activate the reporter system to 50% maximum levels (EC50 value; Table 1). As expected, transcription activation by WT RhlR increased with increased C4HSL levels, with an EC50 value of ~2 µM. We observed a range of responses. Figure 1C depicts the targeted residues, which are colored based on the effect of amino acid substitution.
(§2) RhlR requires the accessory-binding protein, PqsE, for maximal activity. To determine if PqsE expression altered the activation of RhlR variants, we assessed AHL-dependent RhlR activation of the prhlA-luxCDABE reporter in the presence of a third plasmid that constitutively expresses PqsE in E. coli. […] RhlR variants that were still active but with increased EC50 values for C4HSL could have their activity enhanced by PqsE. […] Thus, alterations to the LBP can diminish the additive effect of PqsE-dependent transcription, indicating a potential role of allosteric conformational changes dependent on ligand occupancy. […] RhlR variants at residues I84 and W108 could not be activated by C4HSL, and thus, light levels remained low at all concentrations that were tested. Unlike the aforementioned variants, RhlR I84M/W and RhlR W108F/Y were activated by the expression of PqsE (Fig. S4).
(§3) All E. coli strains in this study were grown overnight with shaking in 5 mL Luria-Bertani (LB) media supplemented with 100 µg/mL ampicillin, 50 µg/mL kanamycin, and 15 µg/mL tetracycline at 37°C overnight. Overnight cultures were diluted 1:100 into fresh media, grown at 37°C with shaking for 2 h until reaching OD600 = 0.4. Cultures were induced with a final concentration of 0.1% arabinose, and 198 μL of the induced culture was mixed with 2 μL of C4HSL dilutions in a clear-bottom, black-opaque 96-well plate (Corning) and grown at 37°C with shaking for 4 h. The C4HSL dilution series was performed 1:1 in dimethyl sulfoxide (DMSO) with a top final concentration of 10 μM. Luminescence and optical density were recorded using a Glomax (Promega) plate reader.

Another assay has as its target T2, WT RhlR (Pseudomonas aeruginosa, UniProt P54292).
T2 construct: expressed in transfected cells; host or cells: E. coli carrying pBAD-A-rhlR, pCS26-prhlA-luxCDABE and pACYC-pqsE or empty pACYC
T2 sequence (P54292 1-241): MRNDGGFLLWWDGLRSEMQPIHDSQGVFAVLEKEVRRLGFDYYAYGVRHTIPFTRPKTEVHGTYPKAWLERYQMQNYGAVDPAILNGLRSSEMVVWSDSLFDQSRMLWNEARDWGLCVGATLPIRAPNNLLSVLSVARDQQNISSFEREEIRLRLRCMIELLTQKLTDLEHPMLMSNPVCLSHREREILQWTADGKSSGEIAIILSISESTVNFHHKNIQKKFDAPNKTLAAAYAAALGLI
The assay is described as follows: E. coli prhlA-luxCDABE luciferase reporter assay. The format is cell-based. To be noted: read-out: EC50.
Description: as §1, §2, §3
On the technique in general: Reporter assays use an easily measured gene product as a stand-in for the process of interest.

The target of the next assay is T3, RhlR (T58F) (Pseudomonas aeruginosa, UniProt P54292, T58F).
T3 construct: expressed in transfected cells; host or cells: E. coli carrying pBAD-A-rhlR mutant, pCS26-prhlA-luxCDABE and pACYC-pqsE or empty pACYC
T3 sequence (P54292 1-241 T58F): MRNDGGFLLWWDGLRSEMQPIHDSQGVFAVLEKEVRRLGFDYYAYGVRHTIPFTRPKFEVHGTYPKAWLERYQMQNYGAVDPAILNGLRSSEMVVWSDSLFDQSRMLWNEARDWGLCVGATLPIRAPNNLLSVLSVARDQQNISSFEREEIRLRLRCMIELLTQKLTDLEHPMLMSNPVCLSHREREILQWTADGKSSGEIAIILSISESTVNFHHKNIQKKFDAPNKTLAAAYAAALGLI
The assay is described as follows: E. coli prhlA-luxCDABE luciferase reporter assay. The assay is classed as cell-based, Escherichia coli.
Description: as §1, §2, §3

Another assay deals with T4, RhlR (T58I) (Pseudomonas aeruginosa, UniProt P54292, T58I).
T4 construct: expressed in transfected cells; host or cells: E. coli carrying pBAD-A-rhlR mutant, pCS26-prhlA-luxCDABE and pACYC-pqsE or empty pACYC
T4 sequence (P54292 1-241 T58I): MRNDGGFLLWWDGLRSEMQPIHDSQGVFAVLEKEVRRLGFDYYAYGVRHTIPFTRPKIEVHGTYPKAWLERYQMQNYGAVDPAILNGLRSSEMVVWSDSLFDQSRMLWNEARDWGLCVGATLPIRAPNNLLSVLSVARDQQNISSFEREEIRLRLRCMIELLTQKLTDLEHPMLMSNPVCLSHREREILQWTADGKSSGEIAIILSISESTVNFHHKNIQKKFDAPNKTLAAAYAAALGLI
The assay can be described thus: E. coli prhlA-luxCDABE luciferase reporter assay. The assay is classed as cell-based, Escherichia coli.
Description: as §1, §2, §3

The target of a further assay is T5, RhlR (T58L) (Pseudomonas aeruginosa, UniProt P54292, T58L).
T5 construct: expressed in transfected cells; host or cells: E. coli carrying pBAD-A-rhlR mutant, pCS26-prhlA-luxCDABE and pACYC-pqsE or empty pACYC
T5 sequence (P54292 1-241 T58L): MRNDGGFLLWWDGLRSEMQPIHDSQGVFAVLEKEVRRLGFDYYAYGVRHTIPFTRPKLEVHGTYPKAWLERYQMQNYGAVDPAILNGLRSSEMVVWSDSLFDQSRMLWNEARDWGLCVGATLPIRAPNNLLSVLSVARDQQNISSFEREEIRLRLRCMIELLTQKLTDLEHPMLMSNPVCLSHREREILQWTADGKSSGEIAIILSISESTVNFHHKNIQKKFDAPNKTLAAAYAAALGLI
The assay is described as follows: E. coli prhlA-luxCDABE luciferase reporter assay. The assay is classed as cell-based, Escherichia coli.
Description: as §1, §2, §3

The next assay deals with 6x-His-PqsE (Pseudomonas aeruginosa, UniProt P20581 1-301). The assay is described as follows: cell-based or functional assay.

Like-named read-outs stand apart in the source and are kept apart here.

Regarding `CCCCCCCCCC(=O)CC(=O)N[C@H]1CCOC1=O` [3OC12HSL, N-(3-oxododecanoyl)-L-homoserine lactone], in the assay with LasR, the EC50 (as a rule, the concentration at which the effect is half-maximal) was around 2 nM.
As for `CCCCCC(=O)N[C@H]1CCOC1=O` [C6HSL], the EC50 at RhlR (T58V) (Vector (no pqsE)) was 809 nM; at RhlR (T58V) (pqsE co-expressed), 111 nM; on WT RhlR (Vector (no pqsE)), 12600 nM; at WT RhlR (pqsE co-expressed), 9240 nM; at RhlR (T58F) (Vector (no pqsE)), 580 nM; on RhlR (T58F) (pqsE co-expressed) it was 103 nM. For the same molecule, the EC50 at RhlR (T58I) (Vector (no pqsE)) was 561 nM; on RhlR (T58I) (pqsE co-expressed), 51.1 nM; on RhlR (T58L) (Vector (no pqsE)) it was 168 nM; on RhlR (T58L) (pqsE co-expressed) it was 0.908 nM.

B1: WT RhlR (receptor)
chain: MRNDGGFLLWWDGLRSEMQPIHDSQGVFAVLEKEVRRLGFDYYAYGVRHTIPFTRPKTEVHGTYPKAWLERYQMQNYGAVDPAILNGLRSSEMVVWSDSLFDQSRMLWNEARDWGLCVGATLPIRAPNNLLSVLSVARDQQNISSFEREEIRLRLRCMIELLTQKLTDLEHPMLMSNPVCLSHREREILQWTADGKSSGEIAIILSISESTVNFHHKNIQKKFDAPNKTLAAAYAAALGLI
On to B1, for which, in the assay with 6x-His-PqsE, the “prhlA-luxCDABE reporter in E. coli: C4HSL-RhlR-dependent expression with PqsE expressed from a third plasmid (pACYC) against the empty vector” value was around 20 fold.
